The source of these data is ChEMBL document CHEMBL1147276, “Novel Acetylenic Acids from the Root Bark of Paramacrolobium caeruleum: Inhibitors of 3-Hydroxy-3-methyl-glutaryl Coenzyme A Reductase” (J Nat Prod, 1989).

In one assay the target is T1, 3-hydroxy-3-methylglutaryl-coenzyme A reductase (Homo sapiens, UniProt P04035).
T1 sequence (P04035 whole entry): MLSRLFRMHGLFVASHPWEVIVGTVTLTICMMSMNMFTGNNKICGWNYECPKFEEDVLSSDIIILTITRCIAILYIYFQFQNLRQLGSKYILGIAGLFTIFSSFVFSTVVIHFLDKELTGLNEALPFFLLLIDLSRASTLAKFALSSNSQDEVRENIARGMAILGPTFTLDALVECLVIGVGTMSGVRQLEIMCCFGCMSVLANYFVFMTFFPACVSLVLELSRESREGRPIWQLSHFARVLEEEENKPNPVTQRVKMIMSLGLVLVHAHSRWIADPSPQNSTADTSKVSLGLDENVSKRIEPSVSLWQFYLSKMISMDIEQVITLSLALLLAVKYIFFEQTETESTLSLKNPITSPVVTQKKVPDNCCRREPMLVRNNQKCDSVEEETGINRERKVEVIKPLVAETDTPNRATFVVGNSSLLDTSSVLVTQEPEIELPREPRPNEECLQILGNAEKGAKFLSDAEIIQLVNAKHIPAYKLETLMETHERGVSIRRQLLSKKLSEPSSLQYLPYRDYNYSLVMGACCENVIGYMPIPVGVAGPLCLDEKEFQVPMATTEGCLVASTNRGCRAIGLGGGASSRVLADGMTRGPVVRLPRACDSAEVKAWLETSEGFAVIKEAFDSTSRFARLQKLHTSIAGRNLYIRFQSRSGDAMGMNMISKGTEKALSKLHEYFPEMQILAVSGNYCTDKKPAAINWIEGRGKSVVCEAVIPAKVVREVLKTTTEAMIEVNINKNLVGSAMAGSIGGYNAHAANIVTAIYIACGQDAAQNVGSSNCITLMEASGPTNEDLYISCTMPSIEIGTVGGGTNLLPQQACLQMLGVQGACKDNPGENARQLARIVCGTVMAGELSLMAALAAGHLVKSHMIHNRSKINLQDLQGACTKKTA
The assay is described as follows: Inhibition of human HMGCoA reductase.
Conditions: not given; call rule not given here
The IC50 is the concentration at which inhibition is half-maximal. Take `CCCCCCCCCCCCCCCCCC(=O)O` [STEARIC ACID]: the IC50 entry is “Not Active”.
The same measure, in the same setting: the result for `CCCCCCCC/C=C\CCCCCCCC(=O)O` [OLEIC ACID] reads “Not Active”.

Staying with this assay, now noted: read-out: IC50.
`CCCCCCCCC#CC#C/C=C\CCCC(=O)O`: the IC50 was determined as 1.5 µM.
Same read-out and setting: the result for `CCCCCCCCC#CC#CC(O)CCCCC(=O)O` (centres undefined) reads 7 µM.
With `CCCCCCCCC#CCCCCCCCC(=O)O`, the IC50 was 5 µM.
Still for that read-out and setting: as for `CCCCCCCCC#CC#C/C=C/CCCC(=O)O`, the figure is 0.5 µM.
Still for that read-out and setting: the result for `CCCCCCCCC#CC#CCCCCCC(=O)O` reads 5 µM.
The same measure, in the same setting: as for `CCCCCCCCC#CC#CC1OC1CCCC(=O)O` (centres undefined), the figure is 5 µM.
As for `CCCCC#CC#CCCCCCC(=O)O`, the IC50 turned out to be 3 µM.
